Results published in PMC6272399, “Anti-Proliferative Effect and Induction of Apoptosis in Androgen-Independent Human Prostate Cancer Cells by 1,5-Bis(2-hydroxyphenyl)-1,4-pentadiene-3-one” (Molecules, 2015).

Legend:
[1] = system: androgen-dependent prostate cancer cells; parameters: method as in PMID 21796654; conditions: cited from earlier work
prostate cancer cells = system: prostate cancer cells; parameters: method as in PMID 21796654; conditions: compound labeled ca27; cited from earlier work
DU 145 cells [2] = experiment: AO/EB double staining, morphology and quantification of apoptotic and necrotic cells, DU 145; type: cell-based, human; conditions: for necrotic cells: approximate
Experimental: Cell morphological changes were assessed by the differential staining DNA-intercalate fluorescent dyes acridine orange (AO) and ethidium bromide (EB). Cells (3 × 10^5) were seeded in a 6-well tissue culture plates, treated with MS17 at various concentrations (EC50, 2 × EC50, 3 × EC50) and incubated for 12, 24, 48 and 72 h time intervals. After incubation, cell pellets were suspended in 50 µL of cold PBS. To each samples, 10 µL of cell suspension was added with 1 µL of AO/EB dye mixture (1 part of 100 µg/mL of AO in PBS; 1 part of 100 µg/mL of EB in PBS) prior to microscopic examination. Ten microliter of the cell suspension mixed with the dye mixture was placed on a glass microscopic slide covered with a cover slip and was observed and photographed with a fluorescence microscope using a fluorescein filter (BX41, Olympus, Center Valley, PA, USA). A minimum of 200 total targeted cells were counted per sample and the percentage of cells from each population (viable, early apoptosis, late apoptosis and necrosis) was calculated. The experiment was conducted in triplicates. Untreated cells containing DMSO alone were used as negative control.

DU 145 cells [3] = experiment: Free nucleosome detection (Cell Death Detection ELISA), DU 145; type: cell-based, human; conditions: DU 145, 8.4 µM compared with 4.2 and 12.6 µM, all time points
Experimental: To confirm the presence of histone-bound DNA fragments (free nucleosomes) in the prostate cancer cells after the treatment of MS17, Cell Death Detection ELISA^PLUS kit (Roche Diagnostics) was used according to the manufacturer’s protocol. Cells were plated on a bottom flat tissue culture plates at a concentration of 10^5 cells per well and incubated for 24 h to allow the cells to adhere. After overnight incubation, MS17 at various concentrations (EC50, 2 × EC50, 3 × EC50) were added to a final volume of 100 µL per well and further incubated for 24, 48 and 72 h. The plate was centrifuged at 600 rpm at 4 °C for 10 min. The cell pellet containing the apoptotic bodies was resuspended in lysis buffer and incubated for 30 min at room temperature. […] The amount of nucleosomes retained by the POD in the immunocomplex, corresponding to the extent of apoptosis and necrosis, was determined with 2,2'-azinobis-3-ethyl-benzothiazoline-6-sulfonic acid (ABTS) as substrate using a micro-plate ELISA reader at a wavelength of 405/490 nm. The amount of enrichment of mono- and oligonucleosomes released into the cytoplasm was calculated using the following formula: Enrichment factor= Absorbance of sample/Absorbance of control

[4] = system: WI-38 (human lung fibroblast cells); experiment: MTT cytotoxicity assay, normal WI-38; type: cell-based; conditions: normal cell line, 72 h treatment, mean ± SD, read-out: EC50 Values (µM) of Compounds on Cell Lines WI-38
Experimental: Cell viability was determined by the MTT [3-(4,5-dimethylthiazol-2-yl)-2,5-diphenyltetrazolium bromide] assay, as previously described by Mosmann with modifications. Briefly, cells were detached from the tissue culture flask and pelleted by centrifugation at 1000 rpm for 5 min. Then, the density of the viable cells was counted using a haemocytometer. Cells were then plated in a 96-well flat bottom micro-titer plate (Nunc) at a concentration of 10^4 cells/mL and incubated in a 5% CO2 incubator at 37 °C overnight to allow the cells to adhere to the bottom of the wells. After 24 h, the media was aspirated off and replaced with fresh media containing sample compounds (curcumin and curcumin analogues) of seven different concentrations ranging from 1.56 µM–100 µM and incubated at 37 °C, 5% CO2 for 72 h. Separately, the sample compounds were prepared in a stock solution of 50 mM in 100% dimethyl sulfoxide (DMSO, Molecular Biology Grade, Sigma-Aldrich, St. Louis, MO, USA) and diluted in the culture media to a working concentration of 200 µM. Curcumin, the parent compound which was used as the positive control was also prepared in the similar manner. A two-fold serial dilution was done for each sample in triplicates down the columns of the plate, yielding a final volume and concentration of 100 µL in 0.2% DMSO in each wells. Following treatment, 50 µL MTT solutions (0.5 mg/mL in PBS) was added to each well and incubated for another 4 h at 37 °C in a humidified 5% CO2 incubator. The supernatant was replaced with 100 µL of DMSO and the optical density (OD) was measured at 570/650 nm using a micro-plate ELISA reader (Bio-Rad Laboratories, Hercules, CA, USA). The percentage of viable cells was calculated based on the ratio of the corrected absorbance of sample-treated cells to the corrected absorbance of the control (0.2% DMSO-treated cells) multiplied by 100. The percentage of cell viability was determined as follows: % Cell viability= OD of treated cells /OD of control ×100
For each compound tested, the EC50 value was generated from the log dose-response curves for each cell line using the Graphpad Prism version 5.04 for Windows (Graphpad Software, La Jolla, CA, USA). […] Cytotoxicity of each tested compound is expressed as the EC50 value. Based on the EC50 values, selectivity index (SX) value was also determined. Selectivity index is a special parameter applied as a selectivity indicator of tested compounds towards cancer cells. The SX represents the ratio of EC50 value obtained in toxicity testing using the normal cell lines to the EC50 values of the toxicity testing of the cancer cells, and then multiplied by 100. All the compounds were assessed for their potential toxicity against normal, non-cancerous cells. […] The SX values were calculated using the following equation: SX = EC50 (normal cells)/EC50 (cancer cells) × 100

For `O=C(C=Cc1ccccc1O)C=Cc1ccccc1O` [MS17, 1,5-bis(2-hydroxyphenyl)-1,4-pentadiene-3-one], the anti-androgenic effect [1] is given as “exert anti-androgenic effect”, the “growth inhibition of prostate cancer cells” value (prostate cancer cells) is given as “able to inhibit the growth of prostate cancer cells at a concentration below that typically used for curcumin” and the necrotic cells (DU 145 cells [2]; DU 145, 4.2 µM, 48 h) is given as “approximately 10%”. The “morphological observation of cell nuclei (AO/EB)” value (DU 145 cells [2]; DU 145, MS17-treated vs untreated) was “typical signs of apoptosis such as cell shrinkage, formation of apoptotic bodies and membrane blebbing”, the necrotic cells (DU 145 cells [2]; DU 145, all examined doses, 24 h) was < 5% and the “nucleosomal fragments (enrichment factor)” value (DU 145 cells [3]) was “significant increase in nucleosomal fragments”. It also gave an EC50 [4] of 5.2 ± 1.2 µM.
